Here are results for 1 compound from US12583868B2, “JAK inhibitors and methods for synthesizing and using thereof” (GALDERMA HOLDING SA, priority 2020, dated 2026).

One data set concerns the target T1, Recombinant JAK1 (Homo sapiens, UniProt P23458).
T1 construct: purchased Life Technologies PV4775
As to the kind of experiment: In vitro enzyme assay (Cisbio kinase assay), JAK1. In kind it is biochemical. Particulars: ATP 300 μM; read-out: Enzymatic assay: IC50 JAK1.

A further data set has as its target T2, JAK3 (Homo sapiens, UniProt P52333).
T2 construct: purchased Life Technologies PV3855
T2 sequence (P52333 1-1124): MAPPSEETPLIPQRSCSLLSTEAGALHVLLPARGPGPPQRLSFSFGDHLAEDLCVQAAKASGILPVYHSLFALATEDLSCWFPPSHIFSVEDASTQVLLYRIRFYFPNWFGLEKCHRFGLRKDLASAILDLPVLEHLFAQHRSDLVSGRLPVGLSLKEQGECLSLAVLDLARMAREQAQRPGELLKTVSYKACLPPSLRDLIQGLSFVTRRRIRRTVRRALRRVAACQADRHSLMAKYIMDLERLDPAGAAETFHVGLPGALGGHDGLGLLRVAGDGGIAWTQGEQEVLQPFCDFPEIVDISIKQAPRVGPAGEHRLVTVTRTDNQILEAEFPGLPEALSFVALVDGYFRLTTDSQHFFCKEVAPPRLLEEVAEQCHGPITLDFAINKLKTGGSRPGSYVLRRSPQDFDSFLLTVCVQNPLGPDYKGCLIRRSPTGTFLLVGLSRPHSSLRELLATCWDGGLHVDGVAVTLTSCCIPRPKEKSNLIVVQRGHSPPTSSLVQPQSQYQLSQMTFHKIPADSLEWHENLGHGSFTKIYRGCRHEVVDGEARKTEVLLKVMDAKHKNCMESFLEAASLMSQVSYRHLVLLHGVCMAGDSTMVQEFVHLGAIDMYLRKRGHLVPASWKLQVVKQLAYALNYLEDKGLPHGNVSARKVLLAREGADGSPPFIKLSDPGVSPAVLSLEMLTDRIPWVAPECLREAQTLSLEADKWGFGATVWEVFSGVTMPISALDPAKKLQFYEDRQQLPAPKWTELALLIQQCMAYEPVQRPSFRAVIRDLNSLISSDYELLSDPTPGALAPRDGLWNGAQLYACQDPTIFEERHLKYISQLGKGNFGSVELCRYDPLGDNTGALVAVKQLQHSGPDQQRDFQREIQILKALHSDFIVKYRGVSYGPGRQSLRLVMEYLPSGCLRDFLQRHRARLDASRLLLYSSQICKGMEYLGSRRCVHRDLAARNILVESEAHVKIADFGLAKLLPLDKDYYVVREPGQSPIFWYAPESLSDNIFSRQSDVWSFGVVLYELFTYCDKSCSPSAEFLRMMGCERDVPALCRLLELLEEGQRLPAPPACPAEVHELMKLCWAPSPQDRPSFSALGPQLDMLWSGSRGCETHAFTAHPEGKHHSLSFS
As to the kind of experiment: In vitro enzyme assay (Cisbio kinase assay), JAK3. The format is biochemical. As to conditions: ATP 300 μM; read-out: Enzymatic assay: JAK3.

The next data set has as its system p-STAT3Y705 in skin. As to the kind of experiment: In vivo pharmacodynamy model: IL-6 induced Phospho-STAT3, topical. Particulars: topical 1 mM, PG/EtOH 3/7. Details: species or system BALB/c ByJ Rj mice; PD/IL6 mouse top @1 mM % vs Tofa: unit not given here.
The nature of another data set: SF logD. The format is physicochemical.
A further data set is described as follows: pKa. The format is physicochemical.
Data set [1] is described as follows: Human skin ex vivo: flux through skin and dermis concentration (Franz cells). The format is in vitro ADME. Particulars: PG/H2O cream 1 mg/mL, human skin.
Another data set can be described thus: Kinetic aq sol. In kind it is physicochemical.
Data set [2] can be described thus: Protein binding analysis (RED), human plasma. In kind it is in vitro ADME. As to conditions: 5 μM. The protocol:
(§1) The protein binding was assessed in plasma of Human, male balb-c mice, male Wistar Han rat, male Göttingen minipig by rapid equilibrium dialysis (RED) devices. After the plasma and buffer phosphate 50 mM pH7.4 were equilibrated at 37° C., the compound was added to plasma to reach a final concentration of 5 μM. An aliquot of plasma was withdrawn immediately. Equilibration under mild agitation was continued for 4 h. The plasma and buffer were sampled and samples were quenched with 4 volumes of acetonitrile and centrifuged. Supernatant was quantified in HPLC/MS/MS to calculate the recovery and the percentage of compound dissolved in the buffer (unbound) and bound to plasma proteins.

A short description of data set [3]: Protein binding analysis (RED), minipig plasma. The format is in vitro ADME. As to conditions: male, Göttingen, pH 7.4, read-out: minipig FU. The protocol: as §1
Data set [4] is described as follows: Intrinsic clearance in hepatocytes, mouse. In kind it is in vitro ADME, male balb-c mouse. Particulars: 2.5 μM. How it is done: The intrinsic clearance was assessed in cryopreserved Hepatocytes obtained by Human livers donors of mix gender pooled together, male balb-c mouse, male Wistar Han rats and male Göttingen minipig, by looking at the parent compound disappearance. The incubations were performed using a final concentration of viable cells of 1 million/ml (viability above 70%) and test item of 2.5 μM. Incubations were followed up to 2 h. Aliquotes were withdrawn at different time points and reaction quenched with acetonitrile. After centrifugation the supernatant was analyzed by HPLC/MS to quantify the remaining amount of parent in comparison with time 0. The clearance was calculated by fitting the log of the percentage remaining with Graphpad Prism ver.7.

The nature of data set [5]: Systemic level in PD/IL6 mouse topical dose response. In kind it is in vivo, BALB/c ByJ Rj mice. Particulars: topical 10 mM. The protocol:
Skin samples were harvested 15 min.

A further data set concerns the target T3, CYP3A4 (Homo sapiens, UniProt P08684).
T3 construct: Human pooled liver microsomes of mixed gender (mainly Caucasian); from tissue; host or cells: pooled human liver microsomes
As to the kind of experiment: CYP3A inhibition in human liver microsomes. The format is in vitro ADME. Particulars: testosterone, CRL data, read-out: IC50 CYP3A4 testo.

In another data set the test system is 3T3 murine fibroblasts. As to the kind of experiment: Phototoxicity (Neutral red uptake). The format is cell-based. Particulars: 3T3 fibroblasts, 7 J/cm2 UVA/UVB. How it is done:
Phototoxicity was evaluated in 3T3 murine fibroblasts. Cells were incubated with different concentrations of test compounds. One plate was then exposed to a dose of 7 J/cm2 (UVA/UVB mimicking usual solar exposure) whereas the other plate was kept in the dark. The treatment medium was then replaced with culture medium and after 24 h cell viability was determined by Neutral red uptake. Concentration leading to 50% decrease of viability was calculated in the absence and in the presence of irradiation. The PIF (photo irritation factor) ratio was then calculated: […]).

A further data set deals with 44 targets. The format is binding. How it is done:
An in vitro pharmacology assay was conducted to assess the capability of the compounds to interact with different pharmacological targets when tested at 10 μM in different binding and enzyme/uptake assays. The included targets are indicative of potential effects in major organs and drug-drug interactions.
Compound binding was calculated as a % inhibition of the binding of a radioactively labelled ligand specific for each target. […] […].

T1 sequence (P23458 whole entry): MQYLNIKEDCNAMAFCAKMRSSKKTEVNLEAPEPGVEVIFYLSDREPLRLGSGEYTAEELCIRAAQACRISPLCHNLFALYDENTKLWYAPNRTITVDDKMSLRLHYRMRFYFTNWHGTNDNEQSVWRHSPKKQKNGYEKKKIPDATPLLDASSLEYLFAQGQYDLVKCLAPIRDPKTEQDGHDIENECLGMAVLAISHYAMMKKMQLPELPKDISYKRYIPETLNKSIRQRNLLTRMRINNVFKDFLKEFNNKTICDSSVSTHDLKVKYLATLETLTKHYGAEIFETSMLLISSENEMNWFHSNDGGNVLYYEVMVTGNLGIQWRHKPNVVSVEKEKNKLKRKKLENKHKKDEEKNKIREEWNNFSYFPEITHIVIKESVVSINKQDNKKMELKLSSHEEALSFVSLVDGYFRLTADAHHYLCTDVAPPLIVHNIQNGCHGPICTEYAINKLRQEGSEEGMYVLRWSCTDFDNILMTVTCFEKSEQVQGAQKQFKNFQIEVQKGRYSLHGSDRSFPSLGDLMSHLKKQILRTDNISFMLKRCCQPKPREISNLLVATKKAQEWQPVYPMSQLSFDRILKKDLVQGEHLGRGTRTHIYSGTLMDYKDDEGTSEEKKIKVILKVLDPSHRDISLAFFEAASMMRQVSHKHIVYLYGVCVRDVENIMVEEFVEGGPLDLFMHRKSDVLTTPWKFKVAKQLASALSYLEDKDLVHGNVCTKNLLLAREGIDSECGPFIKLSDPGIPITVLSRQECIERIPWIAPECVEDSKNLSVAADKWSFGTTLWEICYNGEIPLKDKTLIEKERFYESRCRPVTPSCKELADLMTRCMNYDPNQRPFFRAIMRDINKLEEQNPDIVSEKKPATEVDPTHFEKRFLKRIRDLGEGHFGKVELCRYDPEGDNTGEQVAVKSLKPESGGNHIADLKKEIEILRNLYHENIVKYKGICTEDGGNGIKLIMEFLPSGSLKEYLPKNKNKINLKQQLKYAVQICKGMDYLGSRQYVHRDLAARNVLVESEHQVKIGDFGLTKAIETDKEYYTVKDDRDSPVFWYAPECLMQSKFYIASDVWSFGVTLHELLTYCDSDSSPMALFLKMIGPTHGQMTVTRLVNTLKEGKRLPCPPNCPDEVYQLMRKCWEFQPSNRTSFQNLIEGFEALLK
T3 sequence (P08684 2-503): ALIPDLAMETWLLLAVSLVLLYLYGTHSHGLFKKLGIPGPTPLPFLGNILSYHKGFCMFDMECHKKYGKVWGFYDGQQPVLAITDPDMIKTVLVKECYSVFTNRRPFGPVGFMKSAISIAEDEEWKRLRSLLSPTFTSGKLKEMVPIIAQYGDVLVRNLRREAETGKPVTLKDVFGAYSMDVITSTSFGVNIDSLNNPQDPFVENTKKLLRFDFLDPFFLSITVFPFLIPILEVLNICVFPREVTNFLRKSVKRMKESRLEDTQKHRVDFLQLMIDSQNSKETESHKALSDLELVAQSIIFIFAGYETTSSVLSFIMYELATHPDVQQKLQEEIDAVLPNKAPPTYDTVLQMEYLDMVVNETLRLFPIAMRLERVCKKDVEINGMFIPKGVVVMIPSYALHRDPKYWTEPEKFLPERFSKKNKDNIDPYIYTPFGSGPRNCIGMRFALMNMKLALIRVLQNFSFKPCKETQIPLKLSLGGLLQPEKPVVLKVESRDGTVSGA

Consider `O=S(=O)(N[C@H]1C[C@@H](N2CCOc3cnc4[nH]ccc4c32)C1)C1CN(C2CC2)C1` [Compound E, 1-Cyclopropyl-N-((cis)-3-(2,3-dihydropyrrolo[3′,2′:5,6]pyrido[3,4-b][1,4]oxazin-1(7H)-yl)cyclobutyl)azetidine-3-sulfonamide], for which, at Recombinant JAK1, the IC50 was found to be 0.009 µM. The IC50 at JAK3 is > 10 µM. For the same compound, in the data set on p-STAT3Y705 in skin, the “PD/IL6 mouse top @1 mM % inh vs vehicle” value is listed as 63% and the “PD/IL6 mouse top @1 mM % vs Tofa” value came out at 0.97. For the same compound, in the data set “SF logD”, the logD is 2.1. In “pKa”, this compound displayed a pKa of 6.1. In data set [1], the dermis concentration was determined as 2.2 µM and the “measured flux 6-24 hr” value is reported as < 0.24 ng/cm^2/hr. Further, in the data set “Kinetic aq sol”, the Kinetic aq sol is 225/ND/TBD microM. The same compound gave a hFU in data set [2] of 23%. Further, the fraction unbound at 4 h, 5 μM in data set [3] turned out to be 0.32. Also, the “Intr. Clear. mheps” value in data set [4] worked out at 28 microL/min/10 6 cells. For the same compound, the “PD/IL6 mouse top DR 0.01-10 mM (PG/Acetone/Transcutol): Systemic level @10 mM - 2 hrs” value in data set [5] was 185 nM. Further, the IC50 at CYP3A4 turned out to be 5 µM. Also, the Phototox entry in the data set on 3T3 murine fibroblasts is “Neg/Neg”. For the same compound, the “Safety panel (Cerep): 44 targets % inh @10 microM Nb of targets > 50% inh” value with 44 targets was 2/44. Moreover, the “Safety panel (Cerep): targets > 50% inh” value with 44 targets (10 μM) was “(H2 (antago)-alpha2A (antago))”.
